According to ChEMBL document CHEMBL1201862, “PubChem BioAssay data set” (2004):
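Where inhibition never reached the appropriate level, the endpoint shown equals the highest concentration tested. Otherwise, values were interpolated linearly from a five-concentration, 48-hour dose response in 96-well plates. The concentration for 50% growth inhibition is given as GI50.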 Active and inactive are the calls of the source. No stated cut-off is given here; in the data, active = GI50 up to about 1.1 µM and inactive = higher.

Assays:
Assay in all cases: NCI-60 cell line screen, 48 h
[1] = test system: MOLT-4
[2] = test system: DMS-114
[3] = test system: NCI-H226
[4] = test system: OVCAR-8
[5] = test system: K562
[6] = test system: EKVX
[7] = test system: HOP-62
[8] = test system: KM-20L2
[9] = test system: U-251
[10] = test system: RXF 393
[11] = test system: SK-MEL-5
[12] = test system: UACC-62
[13] = test system: NCI-H522
[14] = test system: KM12
[15] = test system: SF-295
[16] = test system: HCT-116
[17] = test system: MCF7
[18] = test system: M14

Measured: GI50

N#CC(OC1OC(COC2OC(CO)C(O)C(O)C2O)C(O)C(O)C1O)c1ccccc1 (stereo not given)
inactive: [1] > 225 µM | [2] > 225 µM | [3] > 225 µM | [4] > 225 µM | [5] > 225 µM | [6] > 225 µM | [7] > 225 µM | [8] > 225 µM | [9] > 225 µM | [10] > 225 µM | [11] > 225 µM | [12] > 225 µM | [13] > 225 µM | [14] > 225 µM | [15] > 225 µM | [16] > 225 µM | [17] > 225 µM

C=C1CC(OC)(C(O)C(=O)N[C@H]2OCO[C@H]3C2O[C@H](C[C@H](O)COC)C(C)(C)C3OC)O[C@H](C)[C@@H]1C (stereo not given in full)
active: [1] < 0.00773 µM | [2] < 0.00773 µM | [3] < 0.00773 µM | [4] < 0.00773 µM | [5] < 0.00773 µM | [6] < 0.00773 µM | [7] < 0.00773 µM | [8] < 0.00773 µM | [9] < 0.00773 µM | [10] < 0.00773 µM | [11] < 0.00773 µM | [12] < 0.00773 µM | [13] < 0.00773 µM | [14] < 0.00773 µM | [15] < 0.00773 µM | [16] < 0.00773 µM | [17] < 0.00773 µM

COC(=O)c1ccc(/N=N/N(C)CO)cc1
inactive: [1] > 100 µM | [2] > 100 µM | [3] > 100 µM | [4] 83.2 µM | [5] 68.4 µM | [6] > 100 µM | [7] 81.8 µM | [8] > 100 µM | [9] 48.6 µM | [10] 59.6 µM | [11] > 100 µM | [12] 51.1 µM | [13] > 100 µM | [14] > 100 µM | [15] 78 µM | [18] 71.1 µM | [16] > 100 µM

O=C(CCc1nnc(S)[nH]1)Nc1cccc(C(F)(F)F)c1
inactive: [1] > 100 µM | [2] > 100 µM | [3] > 100 µM | [4] > 100 µM | [5] > 100 µM | [6] > 100 µM | [7] > 100 µM | [8] > 100 µM | [9] > 100 µM | [10] > 100 µM | [11] > 100 µM | [12] > 100 µM | [13] 35.2 µM | [14] > 100 µM | [15] > 100 µM | [18] > 100 µM | [16] > 100 µM

CC1=C(O)C(=O)[C@@H]2O[C@@H]2C1=O
inactive: [1] 2.97 µM | [2] 10.3 µM | [3] 14.5 µM | [4] 4.79 µM | [5] 5.64 µM | [6] 14.7 µM | [7] 35.3 µM | [8] 17.2 µM | [9] 19.4 µM | [10] 2.84 µM | [11] 16.1 µM | [12] 8.49 µM | [13] 2 µM | [14] 14.1 µM | [15] 28.2 µM | [16] 7.36 µM | [17] 10 µM

C#CCCCCC#CC1CCCC1C1=CC(=O)c2ccccc21 (stereo not given)
inactive: [1] 2.25 µM | [2] 1.48 µM | [3] 14.5 µM | [4] 1.66 µM | [5] 2.4 µM | [6] 14.8 µM | [7] 7.36 µM | [8] 10.3 µM | [9] 4.43 µM | [10] 4.81 µM | [11] 7.67 µM | [12] 2.05 µM | [13] 7.93 µM | [14] 6.27 µM | [15] 5.25 µM | [18] 5.07 µM | [16] 1.47 µM

CCC(COC(=O)CC[C@@H](NC(=O)C(C)NC(=O)C(C)OC1C(O)C(CO)OC(OCc2ccccc2)C1NC(C)=O)C(N)=O)NC1c2ccccc2Nc2cccc([N+](=O)[O-])c21 (stereo not given in full)
inactive: [1] > 100 µM | [2] > 100 µM | [3] > 100 µM | [4] > 100 µM | [5] > 100 µM | [6] > 100 µM | [7] > 100 µM | [8] > 100 µM | [9] > 100 µM | [10] 37.4 µM | [11] > 100 µM | [12] > 100 µM | [13] > 100 µM | [14] > 100 µM | [15] > 100 µM | [18] > 100 µM | [16] > 100 µM

O=P1(Oc2ccc(Cl)cc2Cl)Oc2cc3ccccc3cc2O1
inactive: [1] 23.5 µM | [2] 27.5 µM | [3] > 76.6 µM | [4] 69 µM | [5] 46.2 µM | [6] 33.9 µM | [7] 71.8 µM | [8] > 100 µM | [9] 81.7 µM | [10] > 58.9 µM | [11] 59 µM | [12] 43.7 µM | [13] 26.5 µM | [14] 43.8 µM | [15] 59.3 µM | [16] > 78.2 µM | [17] 31.8 µM

O=C(CSSCC(=O)Nc1ccc(Br)cc1)Nc1ccc(Br)cc1
inactive: [1] 14.1 µM | [2] 14 µM | [3] 16.9 µM | [4] 17.3 µM | [5] 21.2 µM | [6] 26.5 µM | [7] 12.4 µM | [8] 15.1 µM | [9] 14.4 µM | [10] 18.7 µM | [11] 24 µM | [12] 15.9 µM | [13] 12.2 µM | [14] 19.1 µM | [15] 14.7 µM | [18] 17.7 µM | [16] 14.4 µM

Cc1cc(NS(=O)(=O)c2ccc(NC(=O)c3cccc4cc5ccccc5nc34)cc2)no1
active: [3] 0.191 µM
inactive: [1] 17.1 µM | [2] 18.3 µM | [4] 16.6 µM | [5] 18.1 µM | [6] 29.6 µM | [7] 27.6 µM | [8] 27.7 µM | [9] 12.5 µM | [10] 14.8 µM | [11] 15.6 µM | [12] 13.8 µM | [13] 15.5 µM | [14] 16.4 µM | [15] 19.9 µM | [18] 23.5 µM | [16] 6.7 µM
